# Tests used:
# Type in all cases: cell-based
# [1] = system: ARPE-19 cells; experiment: Protection of lipophenols against ROS production (DCFDA probe, H2O2); conditions: H2O2 600 μM; for increase in ROS compared to non-stressed cells: from 20 μM lipophenol
# Experimental: (§1) ARPE-19 cells (cells from the retinal pigment epithelium) were obtained from ATCC, and were grown following the instructions in Dulbecco's Modified Eagle's Medium (DMEM)/Ham F12 (GIBCO) containing 10% v/v fetal bovine serum (FBS) and 1% v/v penicillin/streptomycin under a humidified air (95%)/CO2 (5%) atmosphere at 37° C. For experimental cell seeding and sub-culturing, cells were dissociated with 0.25% trypsin-EDTA, re-suspended in the culture medium and then plated at 1-3×10^5 cells/mL.
# Reactive oxygen species (ROS) were measured in ARPE-19 cells with the probe DCFDA. The cell permeant reagent DCFDA is deacetylated by cellular esterases to […], which can be oxidized by ROS into the fluorophore 2′,7′-dichlorofluorescein (DCF). ARPE-19 cells were plated into black, opaque bottom 96-well plates (4×10^4 cells/well) and cultured for 24 h to reach confluence before drug treatment. The cell cultures were incubated with 2 μM of DCFDA for 45 min in DMEM/F12 medium without phenol red+1% FBS. The cells were rinsed and incubated with medium containing lipophenols at different concentrations (0-80 μM) for 1 h. Then H2O2 was added to a final concentration of 600 μM for 4 h, followed by the measurement of DCF production by fluorescence spectroscopy with excitation wavelength at 485 nm and emission wavelength at 535 nm. Control cells were incubated with DMSO (0.2%)±DCFDA±H2O2. All samples are expressed as percentage of ROS production compared to non-oxidized control cells (normalized at 100% of ROS production).
# The lowest percentages of increase will therefore be representative of the most protective derivatives.
# [2] = system: ARPE-19 cells; experiment: Cytotoxicity of lipophenols on ARPE-19 cells (MTT); conditions: 24 h; for cell survival: compared to untreated cells (100%); for toxicity (in words): concentrations up to 160 μM
# Experimental: (§2) Cell viability was determined by MTT colorimetric assay. Cells were incubated for 2 h with MTT reagent (0.5 mg/mL). During this incubation time, dehydrogenases of living cells reduced MTT to insoluble purple formazan, which was then dissolved in DMSO. The absorbance at 570 nm and 655 nm of individual wells was measured using a microplate reader (BioRad 550). The percentage of viable cells was calculated as [(OD570 sample−OD655 sample)/(OD570 control−OD655 control)]×100%.
# (§3) ARPE-19 cells were plated into 96-well plates (4×10^4 cells/well) and cultured for 24 h to reach confluence before lipophenol treatment. […] Control cells were incubated with DMSO (0.2%). The viability of the cells was determined using a MTT colorimetric assay. All samples are expressed as percentage of viability compared to non-treated control cells (normalized at 100% survival).
# (§4) Results on the measurement of lipophenol toxicity will be discussed in % cell survival at a given lipophenol concentration compared to untreated cells. […] Any concentration of lipophenol resulting in cell survival of less than 5% (zero survival) will be considered a highly toxic concentration.
# [3] = system: ARPE-19 cells; experiment: Protection of lipophenols against all-trans-retinal toxicity (anti-carbonyl stress activity, MTT); conditions: trans-retinal 15 μM; for anti-carbonyl stress activity (in words): up to 80 μM lipophenol; for cell survival gain (anti-carbonyl stress activity): compared to stressed untreated cells
# Experimental: as §1, §2
# ARPE-19 cells were plated into 96-well plates (4×10^4 cells/well) and cultured for 24 h to reach confluence before lipophenol treatment. The cell cultures were treated with serum free medium containing lipophenols at different concentrations (0-80 μM) for 1 h. Then all-trans-retinal was added to a final concentration of 15 μM for 4 h, before rinsing with medium. Control cells were incubated with DMSO (0.2%)±all-trans-retinal. The cell viability was determined 16-20 h later using a MTT colorimetric assay. All samples are expressed as percentage of viability compared to non-treated and exposed to all-trans-retinal control cells. Non-treated and non-exposed to all-trans-retinal control cells are normalized at 100% survival.
# The results on the measurement of anti-carbonyl stress activity will be discussed in % cell survival gain compared to cells stressed by trans-retinal (at 15 μM) and not treated with lipophenols. Any survival gain greater than +5% will be considered as a proven anti-carbonyl stress activity.
# [4] = Cytotoxicity of lipophenols on ARPE-19 cells (MTT); conditions: human, ARPE-19 cells (retinal pigment epithelium), tested 0-160 μM, read-out: CC50 (cytotoxic concentration 50)
# Experimental: as §2, §3, §4
# [5] = system: ARPE-19 cells; experiment: Protection of lipophenols against photoactivated A2E toxicity (MTT); conditions: A2E 20 μM, blue light
# Experimental: as §1, §2
# ARPE-19 cells were plated into 96-well plates (4×10^4 cells/well) and cultured for 24 h to reach confluence before lipophenol treatment. The cell cultures were treated with serum free DMEM/F12 medium without phenol red containing lipophenols at different concentrations (0-80 μM) for 1 h. Then A2E was added to a final concentration of 20 μM for 6 h, before rinsing with medium. Control cells were incubated with DMSO (0.2%)+A2E. Cells were exposed to intense blue light (4600 LUX) for 30 min to induce phototoxicity of A2E and incubated at 37° C. The cell viability was determined 16-20 h later using a MTT colorimetric assay. All samples are expressed as percentage of viability compared to non-treated and exposed to A2E control cells. Non-treated and non-exposed to A2E control cells are normalized at 100% survival.
# Photoactivation of A2E leads to its oxidation and can generate cytotoxic derivatives, in particular carbonyl derivatives responsible for carbonyl stress. Results on lipophenol protection against photoactivated A2E toxicity will be discussed in % cell survival gain compared to cells stressed by A2E and not treated by lipophenols. This additional evaluation was not performed for all synthesized lipophenolic derivatives but only a selection of them to discuss the results obtained.
compound,measurement,setting,value
"CC(C)Oc1cc(O)cc2oc(-c3ccc(O)c(O)c3)c(O)c(=O)c12 [Q-50iP, reference compound]",gain of % of ROS production compared to non-stressed cells,[1]; 80 μM lipophenol,+46%
same,cell survival,[2]; 160 μM lipophenol,72%
same,toxicity (in words),[2],almost no toxicity
same,anti-carbonyl stress activity (in words),[3],did not show anti-carbonyl stress potency
"CCCCC/C=C\C/C=C\CCCCCCCC(=O)Oc1c(-c2ccc(O)c(O)c2)oc2cc(O)cc(OC(C)C)c2c1=O [Q-3LA-5OiP, (9Z,12Z)-7-hydroxy-2-(3,4-dihydroxyphenyl)-5-isopropoxy-4-oxo-4H-chromen-3-yl octadeca-9,12-dienoate]",CC50 at 24 h,[4],< 80 µM
same,cell survival gain (anti-carbonyl stress activity),[3]; 40 μM lipophenol,+34%
same,cell survival gain (anti-carbonyl stress activity),[3]; 80 μM lipophenol,+49%
"CC/C=C\C/C=C\C/C=C\C/C=C\C/C=C\C/C=C\CCC(=O)Oc1c(-c2ccc(O)c(O)c2)oc2cc(O)cc(OC(C)C)c2c1=O [Q-3DHA-5OiP, (4Z,7Z,10Z,13Z,16Z,19Z)-7-hydroxy-2-(3,4-dihydroxyphenyl)-5-isopropoxy-4-oxo-4H-chromen-3-yl docosa-4,7,10,13,16,19-hexaenoate]",CC50 at 24 h,[4],> 40 µM
same,concentration from which cytotoxicity is induced,[2],60 µM
same,cell survival gain (anti-carbonyl stress activity),[3]; 40 μM lipophenol,+27%
"CC/C=C\C/C=C\C/C=C\C/C=C\C/C=C\C/C=C\CCC(=O)Oc1c(-c2ccc(O)c(O)c2)oc2cc(O)cc(O)c2c1=O [Q-3DHA, (4Z,7Z,10Z,13Z,16Z,19Z)-2-(3,4-dihydroxyphenyl)-5,7-dihydroxy-4-oxo-4H-chromen-3-yl docosa-4,7,10,13,16,19-hexaenoate]",CC50 at 24 h,[4],< 160 µM
same,"cell survival gain, maximum protection",[3]; 60 μM lipophenol,+21%
"CC/C=C\C/C=C\C/C=C\CCCCCCCC(=O)Oc1c(-c2ccc(O)c(O)c2)oc2cc(OC(C)C)cc(O)c2c1=O [Q-3ALA-7OiP, (9Z,12Z,15Z)-5-hydroxy-2-(3,4-dihydroxyphenyl)-7-isopropoxy-4-oxo-4H-chromen-3-yl octadeca-9,12,15-trienoate]",cell survival gain against photoactivated A2E,"[5]; 80 μM lipophenol, compared to stressed untreated cells",+77%
same,toxicity (in words),[2],no toxicity
same,cell survival gain (anti-carbonyl stress activity),[3]; 80 μM lipophenol,+29%
"CC(C)Oc1cc(O)cc2c1C[C@H](O)[C@@H](c1ccc(O)c(O)c1)O2 [C-50iP, reference compound]",increase in ROS compared to non-stressed cells,[1],0%
same,toxicity (in words),[2],no toxicity
same,anti-carbonyl stress activity (in words),[3],no anti-carbonyl stress activity
"CCCCC/C=C\C/C=C\CCCCCCCC(=O)O[C@H]1Cc2c(O)cc(OC(C)C)cc2O[C@@H]1c1ccc(O)c(O)c1 [C-3LA-7OiP, (9Z,12Z)-(2R,3S)-2-(3,4-dihydroxyphenyl)-5-hydroxy-7-isopropoxy-chroman-3-yl octadeca-9,12-dienoate]",gain of % of ROS production compared to non-stressed cells,[1]; 80 μM lipophenol,+37%
same,concentration from which cell survival is zero (highly toxic concentration),[2],80 µM
same,cell survival gain (anti-carbonyl stress activity),[3]; 40 μM lipophenol,+27%
"CC(C)Oc1cc(O)c2c(c1)O[C@H](c1ccc(O)c(O)c1)[C@@H](O)C2 [C-70iP, reference compound]",increase in ROS compared to non-stressed cells,[1],0%
same,toxicity (in words),[2],no toxicity
same,anti-carbonyl stress activity (in words),[3],no anti-carbonyl stress activity
"CC/C=C\C/C=C\C/C=C\C/C=C\C/C=C\C/C=C\CCC(=O)Oc1c(-c2ccc(O)c(O)c2)oc2cc(OC(C)C)cc(O)c2c1=O [Q-3DHA-7OiP, (4Z,7Z,10Z,13Z,16Z,19Z)-5-hydroxy-2-(3,4-dihydroxyphenyl)-7-isopropoxy-4-oxo-4H-chromen-3-yl docosa-4,7,10,13,16,19-hexaenoate]",cell survival gain against photoactivated A2E,[5]; as early as 20 μM lipophenol (plateau),+62%
same,toxicity (in words),[2],no toxicity
same,cell survival gain (anti-carbonyl stress activity),[3]; 80 μM lipophenol,+29%
"CC/C=C\C/C=C\C/C=C\CCCCCCCC(=O)Oc1c(-c2ccc(O)c(O)c2)oc2cc(O)cc(OC(C)C)c2c1=O [Q-3ALA-5OiP, (9Z,12Z,15Z)-7-hydroxy-2-(3,4-dihydroxyphenyl)-5-isopropoxy-4-oxo-4H-chromen-3-yl octadeca-9,12,15-trienoate]",concentration from which cytotoxicity is induced,[2],60 µM
same,cell survival gain (anti-carbonyl stress activity),[3]; 40 μM lipophenol,+24%
"CCCCC/C=C\C/C=C\CCCCCCCC(=O)Oc1c(-c2ccc(O)c(O)c2)oc2cc(O)cc(O)c2c1=O [Q-3LA, (9Z,12Z)-2-(3,4-dihydroxyphenyl)-5,7-dihydroxy-4-oxo-4H-chromen-3-yl octadeca-9,12-dienoate]",cell survival gain against photoactivated A2E,[5]; from 60 μM lipophenol,+48%
same,cell survival,[2]; 80 μM lipophenol,156%
same,cell survival,[2]; 160 μM lipophenol,124%
same,"cell survival gain, maximum protection",[3]; 20 μM lipophenol,+9%
"CCCCC/C=C\C/C=C\CCCCCCCC(=O)O[C@H]1Cc2c(OC(C)C)cc(O)cc2O[C@@H]1c1ccc(O)c(O)c1 [C-3LA-5OiP, (9Z,12Z)-(2R,3S)-2-(3,4-dihydroxyphenyl)-7-hydroxy-5-isopropoxy-chroman-3-yl octadeca-9,12-dienoate]",cell survival gain against photoactivated A2E,[5]; concentration not given,+30%
same,gain of % of ROS production compared to non-stressed cells,[1]; 80 μM lipophenol,+67%
same,cell survival gain (anti-carbonyl stress activity),[3]; 80 μM lipophenol,+9%
"CC(C)Oc1cc(O)c2c(=O)c(O)c(-c3ccc(O)c(O)c3)oc2c1 [Q-70iP, reference compound]",gain of % of ROS production compared to non-stressed cells,[1]; 20 μM lipophenol,+31%
same,concentration from which cell survival is zero (highly toxic concentration),[2],40 µM
same,toxicity (in words),[2],very important cytotoxicity even at low concentration
same,anti-carbonyl stress activity (in words),[3],did not show anti-carbonyl stress potency
(+)-catechin [reference compound],increase in ROS compared to non-stressed cells,[1],0%
same,anti-carbonyl stress activity (in words),[3],no anti-carbonyl stress activity
"Oc1cc(O)cc(O)c1 [phloroglucinol, reference compound]",protection against photoactivated A2E (in words),[5]; up to 80 μM lipophenol,no cell protection
same,gain of % of ROS production compared to non-stressed cells,[1]; 80 μM lipophenol,+50%
same,cell survival,[2]; 160 μM lipophenol,61%
same,anti-carbonyl stress activity (in words),[3],no survival gain
"CCCCC/C=C\C/C=C\CCCCCCCC(=O)Oc1c(-c2ccc(O)c(O)c2)oc2cc(OC(C)C)cc(O)c2c1=O [Q-3LA-7OiP, (9Z,12Z)-5-hydroxy-2-(3,4-dihydroxyphenyl)-7-isopropoxy-4-oxo-4H-chromen-3-yl octadeca-9,12-dienoate]",cell survival gain against photoactivated A2E,[5]; from 40 μM lipophenol (plateau),+86%
same,cell survival,[2]; 160 μM lipophenol,153%
same,cell survival gain (anti-carbonyl stress activity),[3]; 80 μM lipophenol,+38%
